Experimental data from US10683279B2, “Apoptosis signal-regulating kinase 1 inhibitors and methods of use thereof” (Enanta Pharmaceuticals, Inc., priority 2017, dated 2020).

target: ASK1 (Homo sapiens (Human), UniProt Q99683); test: ASK1 kinase inhibition, HTRF KinEASE Assay System (TR-FRET); format: biochemical; details: 5 nM ASK1 kinase, 1 uM STK3 peptide substrate, 100 uM ATP, 3 hours
Experimental: The ability (IC50) of compounds to inhibit ASK1 kinase activity was determined by HTRF® KinEASE™ Assay System.
ASK1 was purchased from Thermofisher (Catalogue # PV401.1), ATP was purchased from Sigma (Catalogue # A7699), HTRF® KinEASE™ Assay System was obtained from Cisbio (Bedford, Mass). ½ Area plate was purchased from Perkin Elmer (Catalogue # #6005560). HTRF® KinEASE™-STK is a generic method for measuring serine/threonine kinase activities using a time-resolved fluorescence resonance energy transfer (TR-FRET) immunoassay. The IC50 value for each compound was determined in the presence of compound (various concentration from 0 to 10 μM) and a fixed amount of ATP and peptide substrates. The test compound, luM STK3 peptide substrate, and 5 nM of ASK1 kinase are incubated with kinase reaction buffer containing 50 mM HEPES pH 7.5, 0.01% BRIJ-35, 10 mM MgCl2, and 1 mM EGTA for 30 minutes. 100 uM ATP is added to start kinase reaction and incubated for 3 hours. The STK3-antibody labeled with Eu^3+-Cryptate and 125 nM streptavidin-XL665 are mixed in a single addition with stop reagents provided by the Cisbio kit used to stop the kinase reaction. Fluorescence is detected using an Envision Multilabeled 2014 reader from PerkinElmer. The Fluorescence is measured at 615 nm (Cryptate) and 665 nm (XL665) and a ratio of 665 nm/615 nm is calculated for each well. The resulting TR-FRET is proportional to the phosphorylation level. Staurosporine was used as the positive control. IC50 was determined by XLfit 5.3.
By using above method, the inhibition of ASK1 was tested for the compound of formula (I). IC50 ranges are as follows: A<1 nM; 1 nM<B<10 nM; 10 nM<C<100 nM; 100 nM<D

ASK1, sequence (Q99683 whole entry): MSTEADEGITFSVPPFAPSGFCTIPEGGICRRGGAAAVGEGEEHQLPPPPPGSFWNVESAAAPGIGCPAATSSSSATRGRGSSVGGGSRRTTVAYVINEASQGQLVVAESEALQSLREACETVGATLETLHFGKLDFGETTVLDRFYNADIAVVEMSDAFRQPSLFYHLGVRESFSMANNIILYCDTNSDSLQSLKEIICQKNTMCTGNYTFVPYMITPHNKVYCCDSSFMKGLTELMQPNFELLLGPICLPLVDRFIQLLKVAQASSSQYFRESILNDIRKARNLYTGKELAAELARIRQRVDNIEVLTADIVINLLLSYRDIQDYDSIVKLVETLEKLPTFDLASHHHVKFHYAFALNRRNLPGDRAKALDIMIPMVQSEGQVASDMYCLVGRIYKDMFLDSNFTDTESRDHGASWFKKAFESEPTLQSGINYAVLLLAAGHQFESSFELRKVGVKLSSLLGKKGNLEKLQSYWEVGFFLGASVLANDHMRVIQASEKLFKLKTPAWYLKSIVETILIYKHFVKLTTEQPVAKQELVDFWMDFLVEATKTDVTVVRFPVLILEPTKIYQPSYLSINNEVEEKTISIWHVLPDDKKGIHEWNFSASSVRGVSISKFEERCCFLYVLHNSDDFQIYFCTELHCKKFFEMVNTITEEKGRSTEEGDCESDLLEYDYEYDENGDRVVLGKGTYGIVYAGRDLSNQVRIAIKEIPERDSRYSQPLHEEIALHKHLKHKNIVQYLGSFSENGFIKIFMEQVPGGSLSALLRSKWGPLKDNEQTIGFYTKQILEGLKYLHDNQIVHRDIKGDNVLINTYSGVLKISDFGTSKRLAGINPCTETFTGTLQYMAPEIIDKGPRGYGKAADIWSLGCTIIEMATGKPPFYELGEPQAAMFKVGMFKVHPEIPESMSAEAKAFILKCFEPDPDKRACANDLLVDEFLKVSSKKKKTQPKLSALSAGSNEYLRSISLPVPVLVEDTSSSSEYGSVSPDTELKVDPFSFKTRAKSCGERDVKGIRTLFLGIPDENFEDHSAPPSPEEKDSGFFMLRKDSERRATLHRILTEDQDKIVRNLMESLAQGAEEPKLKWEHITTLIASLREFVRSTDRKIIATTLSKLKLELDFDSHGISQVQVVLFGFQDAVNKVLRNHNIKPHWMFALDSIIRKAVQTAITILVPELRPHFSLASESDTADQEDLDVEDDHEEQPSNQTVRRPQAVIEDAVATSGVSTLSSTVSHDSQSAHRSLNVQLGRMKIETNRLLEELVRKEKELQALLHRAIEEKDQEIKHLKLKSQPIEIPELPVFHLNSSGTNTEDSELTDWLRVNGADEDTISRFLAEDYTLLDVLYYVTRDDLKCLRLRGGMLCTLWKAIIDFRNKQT

Row | IC50 | SMILES
1 | 10 to 100 nM | CCCC(=O)OC[C@@H](C)n1nnnc1-c1cccc(NC(=O)c2cc(-n3cnc(C4CC4)c3)c(C)cc2F)n1 [Example 24a]
2 | 1 to 10 nM | CC(=O)OCC[C@@H](C)n1nnnc1-c1cccc(NC(=O)c2cc(-n3cnc(C4CC4)c3)c(C)cc2F)n1 [Example 23a]
3 | 1 to 10 nM | Cc1cc(F)c(C(=O)Nc2cccc(-c3nnnn3C3CCCC3)n2)cc1-n1cnc(C2CC2)c1 [Example 8a]
4 | > 1000 nM | Cc1cc(F)c(C(=O)Nc2cccc(-n3ccnc3C(C)C)n2)cc1-n1cnc(C2CC2)c1 [Example 3c, 5-(4-cyclopropyl-1H-imidazol-1-yl)-2-fluoro-N-(6-(2-isopropyl-1H-imidazol-1-yl)pyridin-2-yl)-4-methylbenzamide]
5 | 1 to 10 nM | CC(=O)OC[C@H](C)n1nnnc1-c1cccc(NC(=O)c2cc(-n3cnc(C4CC4)c3)c(C)cc2F)n1 [Example 4a, (S)-2-(5-(6-(5-(4-cyclopropyl-1H-imidazol-1-yl)-2-fluoro-4-methyl-benzamido)pyridin-2-yl)-1H-tetrazol-1-yl)propyl acetate]
6 | 1 to 10 nM | Cc1cc(F)c(C(=O)Nc2cccc(-c3nnnn3[C@H](C)CO)n2)cc1-n1cnc(C2CC2)c1 [Example 7a, (R)-5-(4-cyclopropyl-1H-imidazol-1-yl)-2-fluoro-N-(6-(1-(1-hydroxypropan-2-yl)-1H-tetrazol-5-yl)pyridin-2-yl)-4-methylbenzamide]
7 | 1 to 10 nM | Cc1cc(F)c(C(=O)Nc2cccc(-c3nnnn3[C@@H](C)CO)n2)cc1-n1cnc(C2CC2)c1 [Example 5a, (S)-5-(4-cyclopropyl-1H-imidazol-1-yl)-2-fluoro-N-(6-(1-(1-hydroxypropan-2-yl)-1H-tetrazol-5-yl)pyridin-2-yl)-4-methylbenzamide]
8 | 1 to 10 nM | CC(C)n1nnnc1-c1cccc(NC(=O)c2cc(-n3cnc(C4CC4)c3)c(N3CCN(C)CC3)cn2)n1 [Example 47a]
9 | 1 to 10 nM | CC(C)n1nnnc1-c1nc(NC(=O)c2cc(-n3cnc(C4CC4)c3)c(F)cn2)cs1 [Example 38a]
10 | 1 to 10 nM | Cc1cc(F)c(C(=O)Nc2cccc(-c3nnnn3C3(C)CC3)n2)cc1-n1cnc(C2CC2)c1 [Example 3a, 5-(4-cyclopropyl-1H-imidazol-1-yl)-2-fluoro-N-(6-(1-(1-methylcyclo-propyl)-1H-tetrazol-5-yl)pyridin-2-yl)-4-methylbenzamide]
11 | 1 to 10 nM | Cc1cnc(C(=O)Nc2cccc(-n3nnnc3C(C)C)n2)cc1-n1cnc(C2CC2)c1 [Example 3b]
12 | 1 to 10 nM | Cc1cc(F)c(C(=O)Nc2cccc(-c3nnnn3C3CC3)n2)cc1-n1cnc(C2CC2)c1 [Example 2a, 5-(4-cyclopropyl-1H-imidazol-1-yl)-2-fluoro-N-(6-(1-cyclopropyl-1H-tetrazol-5-yl)pyridin-2-yl)-4-methylbenzamid]
13 | 1 to 10 nM | C[C@H](CO)n1nnnc1-c1cccc(NC(=O)c2cc(-n3cnc(C4CC4)c3)c(C(F)F)cc2F)n1 [Example 32a]
14 | < 1 nM | Cc1cc(F)c(C(=O)Nc2cccc(-c3nnnn3C(CO)CO)n2)cc1-n1cnc(C2CC2)c1 [Example 26a]
15 | 1 to 10 nM | CC(C)n1nnnc1-c1nc(NC(=O)c2cc(-n3cnc(C4CC4)c3)c(C(F)(F)F)cn2)cs1 [Example 59a]
16 | 1 to 10 nM | Cc1cnc(C(=O)Nc2cccc(-c3nnnn3C(C)C)n2)cc1-n1cnc(C(F)(F)F)c1 [Example 50a]
17 | 10 to 100 nM | Cc1cc(F)c(C(=O)Nc2cccc(-c3nnnn3C(C)C)c2)cc1-n1cnc(C2CC2)c1 [Example 35a]
18 | 1 to 10 nM | C[C@H](CO)n1nnnc1-c1cccc(NC(=O)c2cc(-n3cnc(C4CC4)c3)c(C(F)F)cn2)n1 [Example 55a]
19 | 10 to 100 nM | Cc1cnc(C(=O)Nc2cccc(-n3nnnc3C(C)C)n2)cc1-n1cnc(C(F)(F)F)c1 [Example 4b]
20 | 1 to 10 nM | Cc1cc(F)c(C(=O)Nc2cccc(-c3nnnn3[C@H]3C[C@@H](O)C3)n2)cc1-n1cnc(C2CC2)c1 [Example 21a]
21 | 1 to 10 nM | Cc1cc(F)c(C(=O)Nc2cccc(-n3nnnc3C(C)C)n2)cc1-n1cnc(C2CC2)c1 [Example 1b, 5-(4-cyclopropyl-1H-imidazol-1-yl)-2-fluoro-N-(6-(5-isopropyl-1H-tetrazol-1-yl)pyridin-2-yl)-4-methylbenzamide]
22 | 10 to 100 nM | CC(=O)NC[C@@H](C)n1nnnc1-c1cccc(NC(=O)c2cc(-n3cnc(C4CC4)c3)c(C)cc2F)n1 [Example 20a]
23 | 1 to 10 nM | Cc1cc(F)c(C(=O)Nc2cccc(-c3nnnn3[C@H](C)CO)n2)cc1-n1cnc(C(C)(C)C)c1 [Example 30a]

Row | IC50 | SMILES
24 | 1 to 10 nM | Cc1cc(F)c(C(=O)Nc2cccc(-c3nnnn3C3CCC3)n2)cc1-n1cnc(C2CC2)c1 [Example 10a]
25 | 1 to 10 nM | CC(C)n1nnnc1-c1cccc(NC(=O)c2cc(-n3cnc(C4CC4)c3)c(C(F)(F)F)cc2F)n1 [Example 37a]
26 | 1 to 10 nM | Cc1cc(F)c(C(=O)Nc2cccc(-n3nnnc3C(C)C)n2)cc1-n1cnc(C(C)(C)C)c1 [Example 6b]
27 | 1 to 10 nM | Cc1cc(F)c(C(=O)Nc2cccc(-c3nnnn3CC(F)F)n2)cc1-n1cnc(C2CC2)c1 [Example 12a]
28 | 1 to 10 nM | C[C@H](CO)n1nnnc1-c1cccc(NC(=O)c2cc(-n3cnc(C4CC4)c3)c(C(F)(F)F)cn2)n1 [Example 58a]
29 | 1 to 10 nM | Cc1cc(F)c(C(=O)Nc2cccc(-c3nnnn3[C@@H]3CCOC3)n2)cc1-n1cnc(C2CC2)c1 [Example 17a]
30 | 10 to 100 nM | CC(C)n1nnnc1-c1cccc(NC(=O)c2cc(-n3cnc(C4CC4)c3)c(N3CCCCC3)cn2)n1 [Example 40a]
31 | 1 to 10 nM | CC(C)n1nnnc1-c1nc(NC(=O)c2cc(-n3cnc(C4CC4)c3)c(N3CCN(C)CC3)cn2)cs1 [Example 44a]
32 | 1 to 10 nM | Cc1cc(F)c(C(=O)Nc2cccc(-c3nnnn3C(C)C)n2)cc1-n1cnc(C2CC2)c1 [Example 1a, 5-(4-cyclopropyl-1H-imidazol-1-yl)-2-fluoro-N-(6-(1-isopropyl-1H-tetrazol-5-yl)pyridin-2-yl)-4-methylbenzamide]
33 | 1 to 10 nM | CC(C)n1nnnc1-c1nc(NC(=O)c2cc(-n3cnc(C4CC4)c3)c(N3CCOCC3)cn2)cs1 [Example 45a]
34 | 1 to 10 nM | Cc1cc(F)c(C(=O)Nc2cccc(-c3nnnn3[C@H]3CCOC3)n2)cc1-n1cnc(C2CC2)c1 [Example 18a]
35 | 10 to 100 nM | CC(C)n1nnnc1-c1nc(NC(=O)c2cc(-n3cnc(C4CC4)c3)c(N3CCCCC3)cn2)cs1 [Example 41a]
36 | 1 to 10 nM | CC(C)n1nnnc1-c1cccc(NC(=O)c2cc(-n3cnc(C4CC4)c3)c(N3CCOCC3)cn2)n1 [Example 46a]
37 | > 100 nM | CC(=O)OC[C@@H](C)n1nnnc1-c1cccc(NC(=O)c2cc(-n3cnc(C4CC4)c3)c(C)cc2F)n1 [Example 6a, (R)-2-(5-(6-(5-(4-cyclopropyl-1H-imidazol-1-yl)-2-fluoro-4-methyl-benzamido)pyridin-2-yl)-1H-tetrazol-1-yl)propyl acetate]
38 | 10 to 100 nM | Cc1cc(F)c(C(=O)Nc2cccc(-c3nnnn3C(C)C)n2)cc1-n1cnc(C(F)(F)F)c1 [Example 27a]
39 | 1 to 10 nM | CC(C)n1nnnc1-c1cccc(NC(=O)c2cc(-n3cnc(C4CC4)c3)c(N3CCCC3)cn2)n1 [Example 43a]
40 | 1 to 10 nM | Cc1cnc(C(=O)Nc2cccc(-c3nnnn3C(C)C)n2)cc1-n1cnc(C(C)(C)C)c1 [Example 52a]
41 | 1 to 10 nM | CC(C)n1nnnc1-c1nc(NC(=O)c2cc(-n3cnc(C4CC4)c3)c(C(F)F)cn2)cs1 [Example 56a]
42 | 10 to 100 nM | Cc1cc(F)c(C(=O)Nc2cccc(-c3cnnn3C(C)C)n2)cc1-n1cnc(C2CC2)c1 [Example 4c, 5-(4-cyclopropyl-1H-imidazol-1-yl)-2-fluoro-N-(6-(1-isopropyl-1H-1,2,3-triazol-5-yl)pyridin-2-yl)-4-methylbenzamide]
43 | > 1000 nM | Cc1cc(F)c(C(=O)Nc2cccc(-c3nnnn3[C@H](C)COC(=O)c3ccccc3)n2)cc1-n1cnc(C2CC2)c1 [Example 25a]
44 | 10 to 100 nM | Cc1cnc(C(=O)Nc2cccc(-c3nnnn3C(C)C)n2)cc1-n1cnc(C2CC2)c1 [Example 48a]
45 | > 100 nM | Cc1cc(F)c(C(=O)Nc2cccc(-n3nnnc3C(C)C)n2)cc1-n1cnc(C(F)(F)F)c1 [Example 2b]
46 | 1 to 10 nM | CC(C)n1nnnc1-c1cccc(NC(=O)c2cc(-n3cnc(C4CC4)c3)c(F)cn2)n1 [Example 39a]

Row | SMILES | IC50
47 | C[C@H](CO)n1nnnc1-c1cccc(NC(=O)c2cc(-n3cnc(C4CC4)c3)c(CO)cc2F)n1 [Example 33a, (R)-5-(4-cyclopropyl-1H-imidazol-1-yl)-2-fluoro-4-(hydroxymethyl)-N-(6-(1-(1-hydroxypropan-2-yl)-1H-tetrazol-5-yl)pyridin-2-yl)benzamide] | 1 to 10 nM
48 | CC(C)n1nnnc1-c1cccc(NC(=O)c2cc(-n3cnc(C4CC4)c3)c(C(F)F)cc2F)n1 [Example 31a, 5-(4-cyclopropyl-1H-imidazol-1-yl)-4-(difluoromethyl)-2-fluoro-N-(6-(1-isopropyl-1H-tetrazol-5-yl)pyridin-2-yl)benzamide] | 1 to 10 nM
